Results reported in US8247211B2, “Glycopeptide antibiotics” (American Cyanamid Company, priority 2001, dated 2012).
Values after ≈ are worked out from the molar mass of the structure shown.

Columns and labels:
Assay in all cases: In vitro antibacterial evaluation: minimum inhibitory concentration (MIC), broth dilution method
Type in all cases: cell-based
Enterococcus sp. = test system: Enterococcus sp.
Experimental: (§1) The minimum inhibitory concentration (MIC), the lowest concentration of the antibiotic which inhibits growth of the test organism, is determined by the broth dilution method using Muller-Hinton II […] (Baltimore Biological Laboratories) following the recommendations of the National Committee for Clinical Laboratory Standards [Methods for dilution antimicrobial susceptibility tests for bacteria that grow aerobically, approved standard M7-A2, National Committee for Clinical Laboratory Standards, Villanova, Pa].
(§2) An inoculum level of 5×10^5 CFU/mL, and a range of antibiotic concentrations (64-0.06 μg/mL) is used. […] The test organisms include a spectrum of Gram-positive bacteria comprised of Staphylococcus sp., Streptococcus sp. and Enterococcus sp. These organisms include recent clinical isolates that are resistant to methicillin, penicillin and/or vancomycin.

Escherichia coli = test system: Escherichia coli
Experimental: as §1, §2

Staphylococcus sp. = test system: Staphylococcus sp.
Experimental: as §1, §2

Streptococcus sp. = test system: Streptococcus sp.
Experimental: as §1, §2

[1] = broth dilution, inoculum 5×10^5 CFU/mL, 18 hours at 35° C.
[2] = broth dilution, 5×10^5 CFU/mL, 18 hours at 35° C.

## CC(c1ccccc1)C1NC(=O)CNC(=O)C(CO)NC(=O)C(C(O)C2CN(c3nc4ccccc4o3)C(=N)N2C2OC(CO)C(O)C(O)C2O)NC(=O)C(C(O)C2CNC(=Nc3nc4ccccc4o3)N2)NC(=O)C(Cc2ccc(OC3OC(CO)C(OC4OC5COC6(OC5C(O)C4O)C4CC5CC(C4)CC6C5)C(O)C3O)cc2)NC1=O (stereo not drawn) [Example 227, Di-N-(2-(1,3-benzoxazolyl)-cyclo[glycyl-β-methylphenylalanyl-O-[4-O-[4,6-O-(2-adamantylidene)hexopyranosyl]hexopyranosyl]tyrosyl-3-[2-iminoimidazolidin-4-yl]seryl-3-β-hexopyranosyl-2-iminoimidazolidin-4-yl]serylseryl]]
Enterococcus sp.; Enterococcus avium (GC 4558), 18 hours at 35° C.
  MIC Enterococcus avium (GC 4558): 8 µg/mL (≈ 4.81 µM)
Enterococcus sp.; Enterococcus faecalis (ATCC 29212), 18 hours at 35° C.
  MIC Enterococcus faecalis (ATCC 29212): 64 µg/mL (≈ 38.5 µM)
Enterococcus sp.; Enterococcus faecalis (GC 2242), 18 hours at 35° C.
  MIC Enterococcus faecalis (GC 2242): 64 µg/mL (≈ 38.5 µM)
Enterococcus sp.; Enterococcus faecalis (GC 2691), 18 hours at 35° C.
  MIC Enterococcus faecalis (GC 2691): 64 µg/mL (≈ 38.5 µM)
Enterococcus sp.; Enterococcus faecalis (GC 4552), 18 hours at 35° C.
  MIC Enterococcus faecalis (GC 4552): 64 µg/mL (≈ 38.5 µM)
Enterococcus sp.; Enterococcus faecalis (GC 4553), 18 hours at 35° C.
  MIC Enterococcus faecalis (GC 4553): 8 µg/mL (≈ 4.81 µM)
Enterococcus sp.; Enterococcus faecalis (GC 6189), 18 hours at 35° C.
  MIC Enterococcus faecalis (GC 6189): 64 µg/mL (≈ 38.5 µM)
Enterococcus sp.; Enterococcus faecium (GC 2243), 18 hours at 35° C.
  MIC Enterococcus faecium (GC 2243): 32 µg/mL (≈ 19.3 µM)
Enterococcus sp.; Enterococcus faecium (GC 4556), 18 hours at 35° C.
  MIC Enterococcus faecium (GC 4556): 64 µg/mL (≈ 38.5 µM)
Enterococcus sp.; Enterococcus faecium (GC 4557), 18 hours at 35° C.
  MIC Enterococcus faecium (GC 4557): 8 µg/mL (≈ 4.81 µM)
Enterococcus sp.; [1]
  MIC Enterococcus avium (GC 4558): 8 µg/mL (≈ 4.81 µM)
  MIC Enterococcus faecalis (ATCC 29212): 64 µg/mL (≈ 38.5 µM)
  MIC Enterococcus faecalis (GC 2242): 64 µg/mL (≈ 38.5 µM)
  MIC Enterococcus faecalis (GC 2691): 64 µg/mL (≈ 38.5 µM)
  MIC Enterococcus faecalis (GC 4552): 64 µg/mL (≈ 38.5 µM)
  MIC Enterococcus faecalis (GC 4553): 8 µg/mL (≈ 4.81 µM)
  MIC Enterococcus faecalis (GC 6189): 64 µg/mL (≈ 38.5 µM)
  MIC Enterococcus faecium (GC 2243): 32 µg/mL (≈ 19.3 µM)
  MIC Enterococcus faecium (GC 4556): 64 µg/mL (≈ 38.5 µM)
  MIC Enterococcus faecium (GC 4557): 8 µg/mL (≈ 4.81 µM)
Escherichia coli; Escherichia coli (GC 4560), 18 hours at 35° C.
  MIC Escherichia coli (GC 4560): 8 µg/mL (≈ 4.81 µM)
Staphylococcus sp.; strain GC 4546
  MIC Staphylococcus haemolyticus (GC 4546): 64 µg/mL (≈ 38.5 µM)
Staphylococcus sp.; strain GC 4547
  MIC Coagulase Negative Staphylococcus (GC 4547): 32 µg/mL (≈ 19.3 µM)
Staphylococcus sp.; strain GC 4548
  MIC Coagulase Negative Staphylococcus (GC 4548): 4 µg/mL (≈ 2.41 µM)
Staphylococcus sp.; strain GC 4549
  MIC Coagulase Negative Staphylococcus (GC 4549): 32 µg/mL (≈ 19.3 µM)
Staphylococcus sp.; strain GC 4551
  MIC Coagulase Negative Staphylococcus (GC 4551): 8 µg/mL (≈ 4.81 µM)
Streptococcus sp.; Streptococcus agalactiae (GC 4564), 18 hours at 35° C.
  MIC Streptococcus agalactiae (GC 4564): 64 µg/mL (≈ 38.5 µM)
Streptococcus sp.; Streptococcus pneumoniae (ATCC 6301), 18 hours at 35° C.
  MIC Streptococcus pneumoniae (ATCC 6301): 32 µg/mL (≈ 19.3 µM)
Streptococcus sp.; Streptococcus pneumoniae (GC 1894), 18 hours at 35° C.
  MIC Streptococcus pneumoniae (GC 1894): 32 µg/mL (≈ 19.3 µM)
Streptococcus sp.; Streptococcus pneumoniae (GC 4565), 18 hours at 35° C.
  MIC Streptococcus pneumoniae (GC 4565): 64 µg/mL (≈ 38.5 µM)
Streptococcus sp.; Streptococcus pyogenes (GC 4563), 18 hours at 35° C.
  MIC Streptococcus pyogenes (GC 4563): 32 µg/mL (≈ 19.3 µM)
Streptococcus sp.; [1]
  MIC Streptococcus agalactiae (GC 4564): 64 µg/mL (≈ 38.5 µM)
  MIC Streptococcus pneumoniae (ATCC 6301): 32 µg/mL (≈ 19.3 µM)
  MIC Streptococcus pneumoniae (GC 1894): 32 µg/mL (≈ 19.3 µM)
  MIC Streptococcus pneumoniae (GC 4565): 64 µg/mL (≈ 38.5 µM)
  MIC Streptococcus pyogenes (GC 4563): 32 µg/mL (≈ 19.3 µM)

## CC(c1ccccc1)C1NC(=O)CNC(=O)C(CO)NC(=O)C(C(O)C2CNC(=N)N2C2OC(CO)C(O)C(O)C2O)NC(=O)C(C(O)C2CNC(=N)N2)NC(=O)C(Cc2ccc(OC3OC(CO)C(OC4OC5COC(c6ccc(C(C)(C)C)cc6)OC5C(O)C4O)C(O)C3O)cc2)NC1=O (stereo not drawn) [Example 147, Cyclo[glycyl-β-methylphenylalanyl-O-[4-O-[4,6-O-(4-tert-butylbenzylidene)hexonyranosyl]-hexopyranosyl]tyrosyl-3-(2-iminoimidazolidin-4-yl)seryl-3-(3-hexopyranosyl-2-iminoimidazolidin-4-yl)serylseryl]]
Enterococcus sp.; strain ATCC 29212
  MIC Enterococcus faecalis (ATCC 29212): 0.5 to 2 µg/mL
Enterococcus sp.; strain GC 2242
  MIC Enterococcus faecalis (GC 2242): 0.5 to 1 µg/mL
Enterococcus sp.; strain GC 2243
  MIC Enterococcus faecium (GC 2243): 1 to 2 µg/mL
Enterococcus sp.; strain GC 2691
  MIC Enterococcus faecalis (GC 2691): 0.5 µg/mL (≈ 0.347 µM)
Enterococcus sp.; strain GC 3059
  MIC Enterococcus faecalis (GC 3059): 0.5 µg/mL (≈ 0.347 µM)
Enterococcus sp.; strain GC 4552
  MIC Enterococcus faecalis (GC 4552): 0.5 to 1 µg/mL
Enterococcus sp.; strain GC 4553
  MIC Enterococcus faecalis (GC 4553): 0.5 to 1 µg/mL
Enterococcus sp.; strain GC 4554
  MIC Enterococcus faecalis (GC 4554): 0.5 to 1 µg/mL
Enterococcus sp.; strain GC 4556
  MIC Enterococcus faecium (GC 4556): 2 µg/mL (≈ 1.39 µM)
Enterococcus sp.; strain GC 4557
  MIC Enterococcus faecium (GC 4557): 1 to 2 µg/mL
Enterococcus sp.; strain GC 4558
  MIC Enterococcus avium (GC 4558): 0.5 to 2 µg/mL
Enterococcus sp.; strain GC 6189
  MIC Enterococcus faecalis (GC 6189): 0.5 µg/mL (≈ 0.347 µM)
Escherichia coli; strain GC 4559
  MIC Escherichia coli (GC 4559): 64 µg/mL (≈ 44.5 µM)
Escherichia coli; strain GC 4560
  MIC Escherichi coli (GC 4560): 0.5 to 2 µg/mL
Staphylococcus sp.; [2]
  MIC Coagulase Negative Staphylococcus (GC 4547): 1 to 2 µg/mL
  MIC Coagulase Negative Staphylococcus (GC 4548): <0.5 to 1 µg/mL
  MIC Coagulase Negative Staphylococcus (GC 4549): <0.5 to 1 µg/mL
  MIC Coagulase Negative Staphylococcus (GC 4551): 1 µg/mL (≈ 0.695 µM)
  MIC Coagulase Negative Staphylococcus (GC 6257): 2 µg/mL (≈ 1.39 µM)
  MIC Coagulase Negative Staphylococcus (ID-3941): 1 µg/mL (≈ 0.695 µM)
  MIC Staphylococcus aureus (GC 3051): 0.5 µg/mL (≈ 0.347 µM)
  MIC Staphylococcus aureus (GC 3053): 0.5 µg/mL (≈ 0.347 µM)
  MIC Staphylococcus aureus (GC 4542): 0.5 to 1 µg/mL
  MIC Staphylococcus aureus (GC 4544): 0.5 to 1 µg/mL
  MIC Staphylococcus aureus (GC 4545): 0.5 to 1 µg/mL
  MIC Staphylococcus aureus-SMITH (GC 4543): 0.5 to 1 µg/mL
  MIC Staphylococcus haemolyticus (GC 4546): 1 to 2 µg/mL
Staphylococcus sp.; strain GC 3051, broth dilution, 18 hours at 35° C.
  MIC Staphylococcus aureus (GC 3051): 0.5 µg/mL (≈ 0.347 µM)
Staphylococcus sp.; strain GC 3053, broth dilution, 18 hours at 35° C.
  MIC Staphylococcus aureus (GC 3053): 0.5 µg/mL (≈ 0.347 µM)
Staphylococcus sp.; strain GC 4542, broth dilution, 18 hours at 35° C.
  MIC Staphylococcus aureus (GC 4542): 0.5 to 1 µg/mL
Staphylococcus sp.; strain GC 4543, broth dilution, 18 hours at 35° C.
  MIC Staphylococcus aureus-SMITH (GC 4543): 0.5 to 1 µg/mL
Staphylococcus sp.; strain GC 4544, broth dilution, 18 hours at 35° C.
  MIC Staphylococcus aureus (GC 4544): 0.5 to 1 µg/mL
Staphylococcus sp.; strain GC 4545, broth dilution, 18 hours at 35° C.
  MIC Staphylococcus aureus (GC 4545): 0.5 to 1 µg/mL
Staphylococcus sp.; strain GC 4546, broth dilution, 18 hours at 35° C.
  MIC Staphylococcus haemolyticus (GC 4546): 1 to 2 µg/mL
Staphylococcus sp.; strain GC 4547, broth dilution, 18 hours at 35° C.
  MIC Coagulase Negative Staphylococcus (GC 4547): 1 to 2 µg/mL
Staphylococcus sp.; strain GC 4548, broth dilution, 18 hours at 35° C.
  MIC Coagulase Negative Staphylococcus (GC 4548): <0.5 to 1 µg/mL
Staphylococcus sp.; strain GC 4549, broth dilution, 18 hours at 35° C.
  MIC Coagulase Negative Staphylococcus (GC 4549): <0.5 to 1 µg/mL
Staphylococcus sp.; strain GC 4551, broth dilution, 18 hours at 35° C.
  MIC Coagulase Negative Staphylococcus (GC 4551): 1 µg/mL (≈ 0.695 µM)
Staphylococcus sp.; strain GC 6257, broth dilution, 18 hours at 35° C.
  MIC Coagulase Negative Staphylococcus (GC 6257): 2 µg/mL (≈ 1.39 µM)
Staphylococcus sp.; strain ID-3941, broth dilution, 18 hours at 35° C.
  MIC Coagulase Negative Staphylococcus (ID-3941): 1 µg/mL (≈ 0.695 µM)
Streptococcus sp.; strain GC 4563
  MIC Streptococcus pyogenes (GC 4563): >0.12 µg/mL
Streptococcus sp.; strain GC 4564
  MIC Streptococcus agalactiae (GC 4564): <0.12 µg/mL
Streptococcus sp.; strain ID-3187
  MIC Streptococcus pyogenes (ID-3187): <0.5 µg/mL
